Results on 7 compounds are retold here after ChEMBL document CHEMBL1201862, “PubChem BioAssay data set” (2004).

One assay has as its target Vasopressin V2 receptor (Homo sapiens, UniProt P30518). The assay is described as follows: Late-stage results from the probe development effort to identify antagonists of arginine vasopressin receptor 1a (AVPR1a): fluorescence-based cell-based dose response AVPR2 inhibition counterscreen assay. The class given is functional. A general note: Counterscreens check selectivity or assay interference.

A short description of assay [1]: Late-stage results from the probe development effort to identify antagonists of arginine vasopressin receptor 1a (AVPR1a): fluorescence-based cell-based dose response OXTR inhibition counterscreen assay. In kind it is functional.
A further assay has as its target Vasopressin V1b receptor (Homo sapiens, UniProt P47901). The assay is described as follows: Late-stage results from the probe development effort to identify antagonists of arginine vasopressin receptor 1a (AVPR1a): fluorescence-based cell-based dose response AVPR1b inhibition counterscreen assay. The class given is functional.
Assay [2] can be described thus: Late-stage results from the probe development effort to identify antagonists of arginine vasopressin receptor 1a (AVPR1a): fluorescence-based cell-based dose response AVPR1a inhibition assay. In kind it is functional.
The target in assay [3] is T1, Corticotropin-releasing factor receptor 2/Corticotropin-releasing factor-binding protein (Homo sapiens, UniProt P24387+Q13324).
T1 sequence (Q13324 whole entry): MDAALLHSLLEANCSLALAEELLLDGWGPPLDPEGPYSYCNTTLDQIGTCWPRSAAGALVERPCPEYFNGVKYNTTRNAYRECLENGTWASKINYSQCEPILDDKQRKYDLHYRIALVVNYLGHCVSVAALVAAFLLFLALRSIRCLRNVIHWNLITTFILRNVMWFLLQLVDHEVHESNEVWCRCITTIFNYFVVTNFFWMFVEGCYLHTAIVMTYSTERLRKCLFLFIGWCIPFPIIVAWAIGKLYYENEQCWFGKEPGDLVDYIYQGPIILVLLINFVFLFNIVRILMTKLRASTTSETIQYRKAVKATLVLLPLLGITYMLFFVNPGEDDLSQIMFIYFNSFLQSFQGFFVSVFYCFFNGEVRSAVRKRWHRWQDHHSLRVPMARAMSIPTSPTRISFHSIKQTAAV
T1 sequence (P24387 whole entry): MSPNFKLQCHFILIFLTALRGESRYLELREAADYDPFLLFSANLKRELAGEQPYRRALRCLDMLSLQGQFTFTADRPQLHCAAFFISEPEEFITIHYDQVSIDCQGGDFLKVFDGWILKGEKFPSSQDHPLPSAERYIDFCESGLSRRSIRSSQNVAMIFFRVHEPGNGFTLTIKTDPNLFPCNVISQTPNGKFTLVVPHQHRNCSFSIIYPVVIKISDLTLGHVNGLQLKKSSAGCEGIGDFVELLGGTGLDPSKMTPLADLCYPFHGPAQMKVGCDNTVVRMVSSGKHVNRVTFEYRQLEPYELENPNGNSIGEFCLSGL
The assay is described as follows: activators of CRF receptor 2 with binding protein – uHTS hits, confirmation (AID 602473). In kind it is functional. The note with it: read-out: EC50_Mean.

The target in assay [4] is T1, Corticotropin-releasing factor receptor 2/Corticotropin-releasing factor-binding protein. Put plainly: Dose Response confirmation of uHTS hits for small molecule antagonists of the CRF-binding protein and CRF-R2 receptor complex. The class given is functional. The note with it: read-out: IC50_Mean.
Another assay concerns the target Kallikrein-7 (Homo sapiens, UniProt P49862). Put plainly: Fluorescence Intensity-based biochemical primary high throughput dose response assay to identify activators of kallikrein-7 (K7) zymogen.
Assay [5] in a line: cytotoxicity in HPDE-C7 cells, cell-based, fluorescence, HTS (AID 430). In kind it is functional. The note with it: Homo sapiens.
Assay [6] is described as follows: cells. In kind it is functional.
A short description of assay [7]: growth suppression of PTEN-null colon cells, dose response, cell-based, HCT116 PTEN knockout (AID 1047).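 Note: HCT116 colon tumor cells with PTEN knocked out; cells exposed to compound for 60 hours before readout; potency for loss of cell viability measured by luminescence.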 The class given is functional.
For another assay, the system named is H4. Put plainly: Luminescence Cell-Based Dose Response HTS to Identify Activators of 5'UTR Stem-Loop Driven Prion Protein mRNA Translation in H4 Neuroglioblastoma Cells. [Related pubchem assays: 1829 (Project Summary), 1814 (Primary HTS)]. In kind it is functional. The note with it: Homo sapiens.
A short description of assay [8]: cytotoxicity in KRAS-transformed pancreatic duct cells, primary screen, cell-based, fluorescence, HTS (AID 431). In kind it is functional. The note with it: Homo sapiens.
Assay [9] addresses T2, Sentrin-specific protease 8 (Homo sapiens, UniProt Q96LD8).
T2 sequence (Q96LD8 whole entry): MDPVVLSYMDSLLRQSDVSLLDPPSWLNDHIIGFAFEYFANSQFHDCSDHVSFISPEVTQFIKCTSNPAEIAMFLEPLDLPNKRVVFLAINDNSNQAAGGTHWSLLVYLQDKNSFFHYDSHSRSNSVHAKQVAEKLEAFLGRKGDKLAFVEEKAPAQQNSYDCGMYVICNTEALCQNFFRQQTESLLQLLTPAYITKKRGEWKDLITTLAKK
In kind it is functional.

Assay [10] is described as follows: Luminescence Cell-Based Dose Confirmation HTS to Identify Activators of 5'UTR Stem-Loop Driven Alpha-Synuclein mRNA Translation in H4 Neuroglioblastoma Cells. [Related pubchem assays: 1829 (Project Summary), 1814 (Primary HTS)]. In kind it is functional.
A short description of assay [11]: THP-1 cell cytotoxicity, dose response, cytotoxicity control for non-replicating M. tuberculosis project (AID 489025). The class given is functional.
Assay [12] has as its target T3, Fibrinogen beta chain (Homo sapiens, UniProt P02675). The assay is described as follows: Fluorescence polarization-based biochemical high throughput dose response assay to identify inhibitors that disrupt the binding of a cyclic peptide (Tn6) to the fibrin proteolytic product D-Dimer and fragment E complex [DD(E )]. On the technique in general: In fluorescence polarisation assays a small probe gives low polarisation when free and higher when bound to something large.

The nature of assay [13]: Vero E6 cell cytotoxicity, dose response, cytotoxicity control for non-replicating M. tuberculosis project, secondary assay (AID 492998). In kind it is functional, VeroE6. Conditions: Vero C1008.
Assay [14] deals with T3, Fibrinogen beta chain. Put plainly: Fluorescence polarization-based biochemical high throughput dose response assay to identify inhibitors that disrupt the binding of a cyclic peptide (Tn7) to the fibrin proteolytic product D-Dimer and fragment E complex [DD(E )].
The nature of assay [15]: growth suppression of beta-catenin-knockout colon cells, dose response, cell-based, HCT116, human colon tumor (AID 1045).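 Note: HCT116 colon tumor cells with beta catenin knocked out; cells exposed to compound for 60 hours.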 In kind it is functional.
A further assay deals with Nonstructural protein 1 (Influenza A virus, UniProt Q194T2). In kind it is functional, Influenza A virus (A/California/07/2009(H1N1)).
For assay [16], the target named is T2, Sentrin-specific protease 8. The class given is functional. The source holds these as a separate data set.
In assay [17] the target is T4, Oxysterols receptor LXR-beta (Homo sapiens, UniProt P55055).
T4 sequence (P55055 whole entry): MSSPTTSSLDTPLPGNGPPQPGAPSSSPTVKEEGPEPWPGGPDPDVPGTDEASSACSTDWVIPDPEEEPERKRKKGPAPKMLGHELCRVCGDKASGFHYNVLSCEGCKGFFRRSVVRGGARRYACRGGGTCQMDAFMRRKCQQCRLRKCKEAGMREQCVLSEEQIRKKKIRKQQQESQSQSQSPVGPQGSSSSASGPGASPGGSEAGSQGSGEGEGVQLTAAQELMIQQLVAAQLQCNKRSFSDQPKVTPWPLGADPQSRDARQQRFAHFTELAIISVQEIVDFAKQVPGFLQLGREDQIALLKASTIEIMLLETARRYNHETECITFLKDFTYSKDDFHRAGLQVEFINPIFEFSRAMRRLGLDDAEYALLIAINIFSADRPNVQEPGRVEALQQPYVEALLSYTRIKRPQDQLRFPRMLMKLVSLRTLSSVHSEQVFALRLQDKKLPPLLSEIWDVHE
The assay is described as follows: LXR agonists, Gal4 luciferase reporter, dose response, counter-screen for ssDAF-12 agonist project, cell-based, luminescence, HEK293, S. stercoralis campaign (AID 720737). In kind it is functional. The note with it: read-out: IC50 (the source's name). For orientation: In a reporter assay the amount or activity of a reporter protein is the signal.

Assay [18] is described as follows: cells.
Assay [19] addresses T4, Oxysterols receptor LXR-beta. In kind it is functional, cell-based.
A short description of assay [20]: Luminescence-based cell-based high throughput dose response assay to identify activators of the DAF-12 from the parasite S. stercoralis (ssDAF-12). The class given is functional.
Assay [21] in a line: PAX5 activity inhibitors, dose response, selectivity assay for PAX8 inhibitor project, cell-based, plate reader, dry powder samples (AID 743047).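 Note: HEK293 cells carrying a Pax5 driven CD19 promoter luciferase reporter; potency of inhibitors that lower reporter luminescence.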 In kind it is functional.
Assay [22] in a line: PAX2 cell-based inhibition, dose response, selectivity assay for PAX8 inhibitor project, plate reader, dry powder samples (AID 743048).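 Note: HEK293 cells carrying a WT1 promoter luciferase reporter driven by expressed Pax2; potency is for inhibition of Pax2 driven reporter signal.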 In kind it is functional.
Assay [23] is described as follows: cytotoxicity in OVCAR4 cells, dose response, cytotoxicity control for PAX8 inhibitor project, cell-based, plate reader, dry powder, SA11 (AID 743150). Conditions: OVCAR-4. The class given is functional.
The nature of assay [24]: cytotoxicity in COV362 ovarian cancer cells, dose response, cytotoxicity control for PAX8 inhibitor project, cell-based, plate reader, dry powder, SA12 (AID 743144). In kind it is functional.
A short description of assay [25]: cytotoxicity in OV-90 ovarian cancer cells, dose response, PAX8 inhibitor project, cell-based, plate reader, dry powder, SA8 (AID 743149). In kind it is functional.
A further assay deals with Paired box protein Pax-8 (Homo sapiens, UniProt Q06710). Put plainly: inhibitors of PAX8-driven TPO luciferase reporter, dose response, RMG-I cells, cherry-pick (AID 687027).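 Note: luciferase reporter driven by Pax8 target thyroperoxidase promoter measured by SteadyGlo luminescence.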 The class given is functional, cell-based.
Assay [26] is described as follows: cytotoxicity dependent on PAX8, dose response, cell-based, plate reader, dry powder (AID 743049). In kind it is functional.
The nature of assay [27]: cytotoxicity in COV434 cells, dose response, cytotoxicity control for PAX8 inhibitor project, cell-based, plate reader, dry powder, SA7 (AID 743145). In kind it is functional.
A short description of assay [28]: NIH:OVCAR-3 ovarian cancer cell cytotoxicity, dose response, PAX8 inhibitor project, plate reader, dry powder samples (AID 743044). In kind it is functional, cell-based.
The target of assay [29] is NAD-dependent protein deacylase sirtuin-5, mitochondrial (Homo sapiens, UniProt Q9NXA8). The assay is described as follows: SIRT5 desuccinylase inhibitors, dose response, biochemical, fluorescence imaging, cherry-pick, set 5 (AID 720591).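 Note: desuccinylation of succinyl peptide AMC substrate read as fluorescence after trypsin release; potency of inhibitors that lower fluorescence and may act on trypsin instead.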
A short description of assay [30]: HepG2 hepatoma cell cytotoxicity, dose response, cytotoxicity control, CellTiter-Glo luminescence, dry powder, set 3 (AID 720594). In kind it is functional, cell-based.
Assay [31] in a line: AlphaScreen signal interference by compounds, dose response, artefact control for ARNT/TACC3 disruptor project, biochemical, dual-tagged ARNT, dry powder (AID 720564).

Activity calls are given as the source filed them.

The term CC50 denotes the concentration that lowers cell viability or growth by half. Usually AC50 stands for the concentration at which the activity in the assay is half-maximal.

T3 sequence (P02675 whole entry, the tested form may be a part): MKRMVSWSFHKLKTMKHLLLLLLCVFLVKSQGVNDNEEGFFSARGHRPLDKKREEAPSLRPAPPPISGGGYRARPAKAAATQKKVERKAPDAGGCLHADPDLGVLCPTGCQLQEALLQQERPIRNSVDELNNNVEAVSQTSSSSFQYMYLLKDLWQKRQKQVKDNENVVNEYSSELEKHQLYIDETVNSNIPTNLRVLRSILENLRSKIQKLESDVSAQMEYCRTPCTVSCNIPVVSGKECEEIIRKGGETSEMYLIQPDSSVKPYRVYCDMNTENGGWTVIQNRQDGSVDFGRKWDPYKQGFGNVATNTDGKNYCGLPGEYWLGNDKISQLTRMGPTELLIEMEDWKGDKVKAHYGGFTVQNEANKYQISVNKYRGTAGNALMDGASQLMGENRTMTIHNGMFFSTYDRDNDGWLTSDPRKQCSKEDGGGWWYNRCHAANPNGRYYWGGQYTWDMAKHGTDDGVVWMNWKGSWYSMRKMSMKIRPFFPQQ
Paired box protein Pax-8, sequence (Q06710 whole entry): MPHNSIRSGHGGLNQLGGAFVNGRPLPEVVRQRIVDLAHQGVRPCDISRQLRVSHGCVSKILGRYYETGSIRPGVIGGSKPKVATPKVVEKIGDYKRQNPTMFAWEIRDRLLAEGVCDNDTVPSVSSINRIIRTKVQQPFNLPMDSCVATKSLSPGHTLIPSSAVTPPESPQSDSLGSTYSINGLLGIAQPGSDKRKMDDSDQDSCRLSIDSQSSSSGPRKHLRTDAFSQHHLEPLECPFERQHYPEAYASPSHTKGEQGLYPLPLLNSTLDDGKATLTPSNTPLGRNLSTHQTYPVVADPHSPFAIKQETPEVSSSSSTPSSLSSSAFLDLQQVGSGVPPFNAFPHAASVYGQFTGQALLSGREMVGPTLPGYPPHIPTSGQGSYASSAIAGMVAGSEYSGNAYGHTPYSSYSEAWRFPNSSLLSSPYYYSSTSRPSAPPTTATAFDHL
Vasopressin V2 receptor, sequence (P30518 whole entry): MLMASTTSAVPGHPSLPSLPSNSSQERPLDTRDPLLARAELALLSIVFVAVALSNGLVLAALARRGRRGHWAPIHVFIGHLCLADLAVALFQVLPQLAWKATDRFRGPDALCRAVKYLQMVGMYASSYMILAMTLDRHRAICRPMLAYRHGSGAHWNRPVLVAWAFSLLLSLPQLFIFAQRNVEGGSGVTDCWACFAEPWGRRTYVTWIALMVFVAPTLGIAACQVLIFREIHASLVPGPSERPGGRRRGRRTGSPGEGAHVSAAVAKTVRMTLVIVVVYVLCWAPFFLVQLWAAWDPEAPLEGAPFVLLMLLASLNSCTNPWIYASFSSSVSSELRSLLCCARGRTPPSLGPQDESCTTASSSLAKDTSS
Vasopressin V1b receptor, sequence (P47901 whole entry): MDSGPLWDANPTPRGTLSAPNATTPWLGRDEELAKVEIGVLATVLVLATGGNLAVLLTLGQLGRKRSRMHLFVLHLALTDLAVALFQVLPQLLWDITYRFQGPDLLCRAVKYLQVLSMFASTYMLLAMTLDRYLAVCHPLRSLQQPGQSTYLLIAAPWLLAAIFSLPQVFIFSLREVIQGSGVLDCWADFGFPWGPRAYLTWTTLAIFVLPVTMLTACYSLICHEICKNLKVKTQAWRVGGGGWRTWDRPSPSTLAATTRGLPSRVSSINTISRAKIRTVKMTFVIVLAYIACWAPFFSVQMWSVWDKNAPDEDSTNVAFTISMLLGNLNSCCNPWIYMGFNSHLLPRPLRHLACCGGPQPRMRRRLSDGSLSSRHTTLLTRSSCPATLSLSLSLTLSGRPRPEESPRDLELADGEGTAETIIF
NAD-dependent protein deacylase sirtuin-5, mitochondrial, sequence (Q9NXA8 whole entry): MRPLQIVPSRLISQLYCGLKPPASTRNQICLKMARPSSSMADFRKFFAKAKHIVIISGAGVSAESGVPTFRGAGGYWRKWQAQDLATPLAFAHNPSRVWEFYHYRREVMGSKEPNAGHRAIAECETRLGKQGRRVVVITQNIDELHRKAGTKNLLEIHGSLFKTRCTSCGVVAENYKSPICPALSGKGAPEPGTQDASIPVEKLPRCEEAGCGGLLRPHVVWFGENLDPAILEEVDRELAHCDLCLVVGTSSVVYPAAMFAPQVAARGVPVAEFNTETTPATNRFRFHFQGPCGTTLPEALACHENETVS
Kallikrein-7, sequence (P49862 whole entry): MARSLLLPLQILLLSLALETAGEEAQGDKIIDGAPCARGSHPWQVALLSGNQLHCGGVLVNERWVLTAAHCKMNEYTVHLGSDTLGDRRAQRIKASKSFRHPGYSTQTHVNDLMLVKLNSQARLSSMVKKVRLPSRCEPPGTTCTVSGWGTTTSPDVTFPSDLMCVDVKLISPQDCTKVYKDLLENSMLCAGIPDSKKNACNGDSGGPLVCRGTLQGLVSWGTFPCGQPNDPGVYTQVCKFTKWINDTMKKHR
Nonstructural protein 1, sequence (Q194T2 whole entry): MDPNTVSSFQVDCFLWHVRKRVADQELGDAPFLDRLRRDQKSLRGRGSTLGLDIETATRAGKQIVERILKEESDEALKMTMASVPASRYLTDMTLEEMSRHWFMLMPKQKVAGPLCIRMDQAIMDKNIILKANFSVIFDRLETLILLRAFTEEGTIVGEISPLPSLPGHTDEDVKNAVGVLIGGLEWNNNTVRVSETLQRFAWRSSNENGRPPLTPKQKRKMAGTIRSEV

Take `Cc1cccnc1N1CCN(C(=O)N(CC2CC2)c2ccc(Cl)cc2)CC1`: the IC50 was > 50 µM (inactive) on Vasopressin V2 receptor, > 50 µM (inactive) in assay [1], > 50 µM (inactive) on Vasopressin V1b receptor and 8.4 nM (active) in assay [2].

On to `CCCCOC(=O)Oc1ccc2c(=O)c(Oc3cccc(C)c3)coc2c1`, for which the EC50 in assay [3] was > 53 µM (inactive); at Kallikrein-7 it was 6.86 µM (active). For the same compound, the IC50 in assay [4] is > 47.1 µM (inactive).

As for `N#CC(C#N)=c1ccc2c(c1)NC1(CCCCC1)N=2`, the EC50 was 6.5 µM (active) in [5]; 1.37 µM (active) in assay [7]; 5.95 µM (active) in the assay with H4; 9.91 µM (active) in [8]; 1.55 µM (active) in assay [10]; 1.23 µM (active) in assay [15]. Also, the IC50 in the assay “cells [6]” was 10.7 µM (active); in assay [9], > 100 µM (inactive); on Fibrinogen beta chain [12] it was 11.3 µM (inactive); at Fibrinogen beta chain [14], > 83.3 µM (inactive); at Nonstructural protein 1 it was 15.6 µM (active); in assay [16], 3.45 µM (active). The CC50 is 6.67 µM (active) in assay [11] and 15.4 µM (active) in [13].

As for `COc1ccc(-c2cc(-c3ccccc3O)[nH]n2)cc1`, the EC50 (in assay [17]; in “cells [18]”; in assay [19]) was > 67.6 µM (inactive) throughout. The IC50 in [20] is > 67.6 µM (inactive).

Take `COc1ccc(NC(=O)Nc2ccc3c(c2)C(=O)N([C@H](C)CO)C[C@H](C)[C@H](CN(C)Cc2ccc(C(F)(F)F)cc2)OCCCC[C@H](C)O3)cc1`: the AC50 in [21] is 22.9 µM (active); in assay [22], 18.4 µM (active); in assay [23] it was 20.4 µM (active); in assay [24], 26 µM (active); in assay [25], 23.6 µM (active); on Paired box protein Pax-8 it was 9.32 µM (active). In addition, the concentration at half-maximal activity (AC50) in assay [26] is 22.4 µM (active); in [27] it was 27.7 µM (active); in [28] it was 24 µM (active).

Consider `C=CCN(c1ccccc1)S(=O)(=O)c1cccc(C(=O)Nc2ccncc2)c1`, for which the AC50 in assay [29] is > 30 µM (inactive).

Regarding `CC1CCN(S(=O)(=O)c2ccc(C(=O)Nc3nnc(-c4cccs4)o3)cc2)CC1`, the AC50 in [30] is > 52 µM (inactive); in [31], 116 µM (active).
